# Data reported in the NIST ThermoML archive (doi:10.1021/acs.jced.8b00142).
# ± gives the expanded uncertainty stated by the source.
# How the values were obtained:
# [1] = 86 kPa, Liquid, Vibrating tube method
# [2] = wn = mass fraction of the nth substance listed; settings: 86 kPa, Liquid, Vibrating tube method
smiles,measurement,setting,value
CN(CCO)CCO [N-methyldiethanolamine],mass density,[1]; 298.15 K,1036.4 ± 4.1 kg/m3
same,mass density,[1]; 313.15 K,1025.1 ± 4.1 kg/m3
same,mass density,[1]; 323.15 K,1017.5 ± 4.1 kg/m3
same,mass density,[1]; 333.15 K,1009.9 ± 4.1 kg/m3
same,mass density,[1]; 343.15 K,1002.2 ± 4.1 kg/m3
CN(CCO)CCO [N-methyldiethanolamine] + O,mass density,"[2]; 298.15 K, w1 = 0.2573",1020.5 ± 4 kg/m3
same,mass density,"[2]; 298.15 K, w1 = 0.3",1024.7 ± 4 kg/m3
same,mass density,"[2]; 298.15 K, w1 = 0.5",1042.5 ± 4 kg/m3
same,mass density,"[2]; 313.15 K, w1 = 0.2573",1013.5 ± 4 kg/m3
same,mass density,"[2]; 313.15 K, w1 = 0.3",1017.1 ± 4 kg/m3
same,mass density,"[2]; 313.15 K, w1 = 0.5",1032.8 ± 4 kg/m3
same,mass density,"[2]; 323.15 K, w1 = 0.3",1009.6 ± 4 kg/m3
same,mass density,"[2]; 323.15 K, w1 = 0.5",1026 ± 4 kg/m3
same,mass density,"[2]; 333.15 K, w1 = 0.3",1002.7 ± 4 kg/m3
same,mass density,"[2]; 333.15 K, w1 = 0.5",1018.7 ± 4 kg/m3
same,mass density,"[2]; 343.15 K, w1 = 0.3",995.1 ± 4 kg/m3
same,mass density,"[2]; 343.15 K, w1 = 0.5",1011.2 ± 4 kg/m3
same,mass density,"[2]; 348.17 K, w1 = 0.2573",988.9 ± 4 kg/m3
CCCC[n+]1ccccc1.F[B-](F)(F)F [1-butylpyridinium tetrafluoroborate],mass density,[1]; 298.15 K,1213.9 ± 4.2 kg/m3
same,mass density,[1]; 313.15 K,1203.8 ± 4.2 kg/m3
same,mass density,[1]; 323.15 K,1197 ± 4.2 kg/m3
same,mass density,[1]; 333.15 K,1190.3 ± 4.2 kg/m3
same,mass density,[1]; 343.15 K,1183.6 ± 4.2 kg/m3
